These are literature values, as cited in patent US20240024221A1, “COMPOSITION FOR BRIGHTENING AND/OR WHITENING KERATIN MATERIALS” (L'OREAL, priority 2020, published 2024).

The conditions of the data set: 25° C.; raw material table.
With `CCCCCCCCCCCC[N+](C)(C)CC(=O)[O-]` [LAURYL BETAINE], the HLB is on record as 15. For the compound POLYGLYCERYL-2 OLEATE, the HLB was 8. In the case of POLYSORBATE 20, the HLB is on record as 18.6. For `CCCCCCCCCCC(CCCCCCCC)CO[C@@H]1OC[C@@H](O)[C@H](O)[C@H]1O` (some centres unmarked) [OCTYLDODECYL XYLOSIDE], the HLB was 7.3. Turning to SODIUM DILAURAMIDOGLUTAMIDE LYSINE, the HLB is reported as 12.6.
